From patent US9351955B2, “Compounds and pharmaceutical compositions thereof for the treatment of cystic fibrosis” (Galapagos NV, priority 2013, dated 2016)
pEC50: −log10 of the molar value. Like-named read-outs stand apart in the source and are kept apart here.

Experiments:
Assay type in all cases: cell-based
CFTR G551D mutant = target: T1, CFTR G551D mutant (Homo sapiens, UniProt P13569, G551D); assay: YFP-halide influx assay for the CFTR-G551D mutation (HEK293 cells); details: read-out: EC50 measured by YFP-halide influx assay for the CFTR-G551D
T1 construct: expressed in transfected cells; host or cells: HEK293 (reverse transfection with plasmids)
Outline: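 HEK293 cells reverse-transfected with CFTR G551D and halide-sensitive YFP, expressed 24 h at 37 °C. Iodide-induced fluorescence quench recorded for 7 s after I^− injection; response as 1−F/F0, EC50 from concentration plot.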

CFTR ΔF508 mutant [1] = target: T2, CFTR ΔF508 mutant (Homo sapiens, UniProt P13569, DEL508-508); assay: YFP-halide influx assay for the CFTR-ΔF508 mutation (96 well, CFBE41o- cells); details: read-out: EC50 measured by YFP-halide influx assay for the CFTR-ΔF508
T2 construct: expressed in transfected cells; host or cells: CFBE41o- (adenoviral transduction)
From the text: 6.1. YFP-Halide Influx Assay for the CFTR-ΔF508 Mutation
The YFP halide influx assay measures the functionality of the cystic fibrosis Transmembrane Conductance regulator (CFTR) channels in the cystic fibrosis bronchial epithelium cell line CFBE41o-. The assay is used to evaluate the capacity of compounds to increase the open probability of existing CFTR channels in the membrane. It makes use of the observation that the yellow fluorescent protein (YFP) variant YFP H148Q, I152L has its fluorescence substantially quenched by halide ions like Cl^− and I^−. (Galietta et al., 2001; Nagai et al., 2002)
For this purpose, CFBE410-cells are seeded in 96 well plates (6000 CFBE cells/well). One day after seeding, the CFBE cells are transduced with adenoviral vectors that direct the expression of the CFTR ΔF508 mutant and of the YFP reporter. Cells are incubated at 27° C., 5% CO2 for 24 hours so as to allow for the proper folding and migration to the membrane of the CFTR channel or treated with a CFTR modulator during 24 h at 37° C.
The […] quenching of fluorescence is recorded immediately after injection of I^− for 7 seconds. The capacity of a compound to increase the channel opening is directly correlated with the decrease in fluorescence, and is expressed as (1-(fluorescence after 7 seconds (F)/fluorescence before injection (F0))) and an EC50 can be derived from a (1−F/F0) vs compound concentration plot.

CFTR ΔF508 mutant [2] = target: T2, CFTR ΔF508 mutant; assay: YFP-halide influx assay for the CFTR-ΔF508 mutation (384 well, CFBE41o- cells, FDSS/μCell); details: forskolin 10.67 μM, fluorescence after 36 seconds, read-out: EC50 measured by YFP-halide influx assay for the CFTR-ΔF508
Outline: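 CFBE41o- cells were adenovirally transduced with ΔF508 CFTR and the YFP H148Q/I152L reporter. Cells were then held 24 h at 27 °C or treated 24 h at 37 °C with a CFTR modulator. Iodide-induced quench was recorded for 2 min, and EC50 was derived from 1−F/F0 at 36 s against compound concentration.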

[3] = HEK293 cells expressing CFTR G551D and YFP reporter, forskolin 10.67 μM
[4] = compounds of the invention, 96 well, forskolin 10.67 μM

T2 sequence (P13569 with tags, fused parts or gaps DEL508-508): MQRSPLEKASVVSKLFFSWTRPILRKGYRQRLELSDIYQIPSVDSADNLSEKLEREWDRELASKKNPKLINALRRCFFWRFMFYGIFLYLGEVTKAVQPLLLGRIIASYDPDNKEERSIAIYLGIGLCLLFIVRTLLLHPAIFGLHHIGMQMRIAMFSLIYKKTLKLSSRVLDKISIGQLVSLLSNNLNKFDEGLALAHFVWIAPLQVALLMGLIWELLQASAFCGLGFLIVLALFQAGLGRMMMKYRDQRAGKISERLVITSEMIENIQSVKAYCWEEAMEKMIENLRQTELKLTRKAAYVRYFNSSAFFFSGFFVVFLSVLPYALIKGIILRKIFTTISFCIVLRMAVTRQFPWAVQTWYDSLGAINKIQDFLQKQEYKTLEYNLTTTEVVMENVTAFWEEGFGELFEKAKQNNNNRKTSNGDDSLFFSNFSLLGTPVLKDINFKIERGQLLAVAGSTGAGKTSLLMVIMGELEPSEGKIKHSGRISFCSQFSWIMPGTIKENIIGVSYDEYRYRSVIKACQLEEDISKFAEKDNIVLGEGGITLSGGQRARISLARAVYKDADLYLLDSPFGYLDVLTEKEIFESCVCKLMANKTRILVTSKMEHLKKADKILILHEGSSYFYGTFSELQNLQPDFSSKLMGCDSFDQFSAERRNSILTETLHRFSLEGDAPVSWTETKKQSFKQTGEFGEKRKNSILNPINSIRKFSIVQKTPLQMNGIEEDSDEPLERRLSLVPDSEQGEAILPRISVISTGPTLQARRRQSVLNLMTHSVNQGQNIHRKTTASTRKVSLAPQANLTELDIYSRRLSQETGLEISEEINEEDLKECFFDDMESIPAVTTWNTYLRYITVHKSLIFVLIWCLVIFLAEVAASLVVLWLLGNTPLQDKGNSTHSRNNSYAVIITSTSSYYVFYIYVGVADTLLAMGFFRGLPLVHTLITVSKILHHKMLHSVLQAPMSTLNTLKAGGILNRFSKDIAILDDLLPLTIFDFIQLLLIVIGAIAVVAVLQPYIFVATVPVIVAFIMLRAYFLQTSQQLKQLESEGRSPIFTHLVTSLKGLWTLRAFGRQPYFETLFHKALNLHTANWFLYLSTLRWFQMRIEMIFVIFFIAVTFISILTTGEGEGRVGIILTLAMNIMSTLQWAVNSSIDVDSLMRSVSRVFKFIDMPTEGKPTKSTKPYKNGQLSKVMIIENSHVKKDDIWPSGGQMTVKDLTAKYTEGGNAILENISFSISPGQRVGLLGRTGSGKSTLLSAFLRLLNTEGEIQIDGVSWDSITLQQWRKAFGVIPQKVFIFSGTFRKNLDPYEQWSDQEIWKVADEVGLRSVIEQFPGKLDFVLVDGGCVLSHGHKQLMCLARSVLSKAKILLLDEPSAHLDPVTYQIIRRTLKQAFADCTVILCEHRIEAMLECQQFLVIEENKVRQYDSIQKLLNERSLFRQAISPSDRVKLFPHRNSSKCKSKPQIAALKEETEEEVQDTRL
T1 sequence (P13569 whole entry G551D): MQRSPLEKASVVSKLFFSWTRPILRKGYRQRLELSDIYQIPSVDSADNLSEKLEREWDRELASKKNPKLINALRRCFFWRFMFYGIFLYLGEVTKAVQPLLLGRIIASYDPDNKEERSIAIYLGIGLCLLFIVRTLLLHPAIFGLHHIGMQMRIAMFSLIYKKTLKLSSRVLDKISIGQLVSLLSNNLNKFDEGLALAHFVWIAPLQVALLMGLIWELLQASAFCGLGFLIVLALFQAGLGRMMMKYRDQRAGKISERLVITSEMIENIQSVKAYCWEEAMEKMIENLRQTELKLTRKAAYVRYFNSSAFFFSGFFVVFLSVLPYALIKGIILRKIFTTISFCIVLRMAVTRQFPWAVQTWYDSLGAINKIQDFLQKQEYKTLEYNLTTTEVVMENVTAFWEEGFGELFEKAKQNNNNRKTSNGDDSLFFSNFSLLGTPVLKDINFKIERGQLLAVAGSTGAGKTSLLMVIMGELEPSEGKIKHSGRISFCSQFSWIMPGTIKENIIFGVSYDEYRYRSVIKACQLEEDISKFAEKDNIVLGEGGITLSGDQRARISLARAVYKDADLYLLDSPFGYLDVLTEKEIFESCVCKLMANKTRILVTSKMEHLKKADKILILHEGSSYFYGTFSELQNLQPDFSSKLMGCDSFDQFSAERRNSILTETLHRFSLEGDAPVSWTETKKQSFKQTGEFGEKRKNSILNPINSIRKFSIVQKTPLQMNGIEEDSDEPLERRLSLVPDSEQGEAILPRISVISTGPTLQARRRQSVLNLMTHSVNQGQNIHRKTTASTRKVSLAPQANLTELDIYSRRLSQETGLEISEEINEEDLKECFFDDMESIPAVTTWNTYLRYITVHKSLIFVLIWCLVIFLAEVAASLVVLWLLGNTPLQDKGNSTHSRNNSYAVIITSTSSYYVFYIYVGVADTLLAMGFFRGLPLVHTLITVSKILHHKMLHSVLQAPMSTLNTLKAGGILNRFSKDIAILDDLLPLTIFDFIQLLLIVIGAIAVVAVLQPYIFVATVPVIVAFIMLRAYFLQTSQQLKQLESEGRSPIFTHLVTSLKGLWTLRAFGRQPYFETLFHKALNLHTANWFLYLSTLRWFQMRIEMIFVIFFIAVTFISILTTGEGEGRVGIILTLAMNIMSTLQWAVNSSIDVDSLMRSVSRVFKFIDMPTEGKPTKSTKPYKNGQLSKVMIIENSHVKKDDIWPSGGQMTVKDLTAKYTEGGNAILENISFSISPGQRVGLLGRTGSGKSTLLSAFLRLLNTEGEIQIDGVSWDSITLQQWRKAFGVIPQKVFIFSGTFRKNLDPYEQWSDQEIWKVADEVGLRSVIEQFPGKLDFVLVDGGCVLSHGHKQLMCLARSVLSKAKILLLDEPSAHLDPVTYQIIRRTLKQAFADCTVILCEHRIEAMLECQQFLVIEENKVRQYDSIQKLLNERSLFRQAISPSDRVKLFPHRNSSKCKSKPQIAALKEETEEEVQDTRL

Compound | pEC50 (CFTR G551D mutant; [3]) | pEC50 (CFTR ΔF508 mutant [1]; [4]) | pEC50 (CFTR ΔF508 mutant [2]) | pEC50 (CFTR G551D mutant; comparative compounds, HEK293 cells) | pEC50 (CFTR ΔF508 mutant [1]; comparative compounds)
CC1(C)Cc2c(sc(NC(=O)c3ccccc3F)c2C(N)=O)C(C)(C)O1 [Compound 1, 2-(2-fluorobenzamido)-5,5,7,7-tetramethyl-5,7-dihydro-4H-thieno[2,3-c]pyran-3-carboxamide] | 6.55 | 7.92 | 7.18 |  | 
CC1(C)Cc2c(sc(NC(=O)c3ccccc3O)c2C(N)=O)C(C)(C)O1 [Compound 3, 2-(2-hydroxybenzamido)-5,5,7,7-tetramethyl-5,7-dihydro-4H-thieno[2,3-c]pyran-3-carboxamide] | 6.79 | 8.36 | 8.19 |  | 
CC1(C)Cc2c(sc(NC(=O)c3ccccc3C(F)(F)F)c2C(N)=O)C(C)(C)O1 [Compound 5, 5,5,7,7-tetramethyl-2-(2-(trifluoromethyl)benzamido)-5,7-dihydro-4H-thieno[2,3-c]pyran-3-carboxamide] | 6.12 | 7.20 | 7.32 |  | 
CC1(C)Cc2c(sc(NC(=O)c3ccc(F)cc3C(F)(F)F)c2C(N)=O)C(C)(C)O1 [Compound 7, 2-(4-fluoro-2-(trifluoromethyl)benzamido)-5,5,7,7-tetramethyl-5,7-dihydro-4H-thieno[2,3-c]pyran-3-carboxamide] | 5.96 | 7.22 | 7.15 |  | 
CC1(C)Cc2c(sc(NC(=O)c3ccc(F)cc3F)c2C(N)=O)C(C)(C)O1 [Compound 8, 2-(2,4-difluorobenzamido)-5,5,7,7-tetramethyl-5,7-dihydro-4H-thieno[2,3-c]pyran-3-carboxamide] | 6.51 | 7.64 | 7.56 |  | 
Cc1cc(C(=O)Nc2sc3c(c2C(N)=O)CC(C)(C)OC3(C)C)[nH]n1 [Compound 11, N-(3-carbamoyl-5,5,7,7-tetramethyl-5,7-dihydro-4H-thieno[2,3-c]pyran-2-yl)-5-methyl-1H-pyrazole-3-carboxamide] | 6.23 | 7.57 | 7.90 |  | 
COC(=O)C1(C(=O)Nc2sc3c(c2C(N)=O)CC(C)(C)OC3(C)C)CC1 [Compound 12, methyl 1-(3-carbamoyl-5,5,7,7-tetramethyl-5,7-dihydro-4H-thieno[2,3-c]pyran-2-ylcarbamoyl)cyclopropanecarboxylate] | 5.48 | 6.02 | 6.71 |  | 
CC1(C)Cc2c(sc(NC(=O)c3cc(C(C)(C)C)[nH]n3)c2C(N)=O)C(C)(C)O1 [Compound 16, 5-tert-butyl-N-(3-carbamoyl-5,5,7,7-tetramethyl-5,7-dihydro-4H-thieno[2,3-c]pyran-2-yl)-1H-pyrazole-3-carboxamide] | 5.28 | 7.60 | 7.04 |  | 
CC1(C)Cc2c(sc(NC(=O)c3nnc[nH]3)c2C(N)=O)C(C)(C)O1 [Compound 18, N-(3-carbamoyl-5,5,7,7-tetramethyl-5,7-dihydro-4H-thieno[2,3-c]pyran-2-yl)-1H-1,2,4-triazole-3-carboxamide] | 5.48 | 6.08 | 6.33 |  | 
CCc1n[nH]c(C(=O)Nc2sc3c(c2C(N)=O)CC(C)(C)OC3(C)C)c1C [Compound 19, N-(3-carbamoyl-5,5,7,7-tetramethyl-5,7-dihydro-4H-thieno[2,3-c]pyran-2-yl)-3-ethyl-4-methyl-1H-pyrazole-5-carboxamide] | 6.45 | 7.38 | 8.13 |  | 
CC1(C)Cc2c(sc(NC(=O)c3cccnc3F)c2C(N)=O)C(C)(C)O1 [Compound 20, N-(3-carbamoyl-5,5,7,7-tetramethyl-5,7-dihydro-4H-thieno[2,3-c]pyran-2-yl)-2-fluoronicotinamide] | 5.48 | 6.52 | 6.37 |  | 
CC1(C)Cc2c(sc(NC(=O)c3cccnc3O)c2C(N)=O)C(C)(C)O1 [Compound 23, N-(3-carbamoyl-5,5,7,7-tetramethyl-5,7-dihydro-4H-thieno[2,3-c]pyran-2-yl)-2-oxo-1,2-dihydropyridine-3-carboxamide] | 5.90 | 6.99 | 6.72 |  | 
CC1(C)Cc2c(sc(NC(=O)c3ccccc3-c3ncc[nH]3)c2C(N)=O)C(C)(C)O1 [Compound 27, 2-(2-(1H-imidazol-2-yl)benzamido)-5,5,7,7-tetramethyl-5,7-dihydro-4H-thieno[2,3-c]pyran-3-carboxamide] | 5.78 | 6.36 | 6.72 |  | 
CC1(C)Cc2c(sc(NC(=O)c3ccccc3NS(C)(=O)=O)c2C(N)=O)C(C)(C)O1 [Compound 28, 5,5,7,7-tetramethyl-2-(2-(methylsulfonamido)benzamido)-5,7-dihydro-4H-thieno[2,3-c]pyran-3-carboxamide] | 5.70 | 6.42 | 6.83 |  | 
CC1(C)Cc2c(sc(NC(=O)C3CCNC3=O)c2C(N)=O)C(C)(C)O1 (stereo not drawn) [Compound 30, N-(3-carbamoyl-5,5,7,7-tetramethyl-5,7-dihydro-4H-thieno[2,3-c]pyran-2-yl)-2-oxopyrrolidine-3-carboxamide] | 5.18 | 6.85 | 6.99 |  | 
CN1CCc2[nH]nc(C(=O)Nc3sc4c(c3C(N)=O)CC(C)(C)OC4(C)C)c2C1 [Compound 31, N-(3-carbamoyl-5,5,7,7-tetramethyl-5,7-dihydro-4H-thieno[2,3-c]pyran-2-yl)-5-methyl-4,5,6,7-tetrahydro-1H-pyrazolo[4,3-c]pyridine-3-carboxamide] |  | 6.45 | 6.45 |  | 
CC1(C)Cc2c(sc(NC(=O)c3n[nH]c4c3COCC4)c2C(N)=O)C(C)(C)O1 [Compound 32, N-(3-carbamoyl-5,5,7,7-tetramethyl-5,7-dihydro-4H-thieno[2,3-c]pyran-2-yl)-1,4,6,7-tetrahydropyrano[4,3-c]pyrazole-3-carboxamide] | 6.07 | 7.64 | 7.40 |  | 
CCc1[nH]nc(C(=O)Nc2sc3c(c2C(N)=O)CC(C)(C)OC3(C)C)c1Cl [Compound 36, N-(3-carbamoyl-5,5,7,7-tetramethyl-5,7-dihydro-4H-thieno[2,3-c]pyran-2-yl)-4-chloro-5-ethyl-1H-pyrazole-3-carboxamide] | 6.14 | 7.89 | 7.91 |  | 
CC1(C)Cc2c(sc(NC(=O)c3[nH]nc4c3COC4)c2C(N)=O)C(C)(C)O1 [Compound 37, N-(3-carbamoyl-5,5,7,7-tetramethyl-5,7-dihydro-4H-thieno[2,3-c]pyran-2-yl)-4,6-dihydro-1H-furo[3,4-c]pyrazole-3-carboxamide] | 6.05 | 7.80 | 7.59 |  | 
CC(=O)OC1(C(=O)Nc2sc3c(c2C(N)=O)CC(C)(C)OC3(C)C)CCOCC1 [Compound 41, 4-(3-carbamoyl-5,5,7,7-tetramethyl-5,7-dihydro-4H-thieno[2,3-c]pyran-2-ylcarbamoyl)tetrahydro-2H-pyran-4-yl acetate] |  | 5.76 | 6.22 |  | 
NC(=O)c1c(NC(=O)c2ccccc2O)sc2c1CCOC2 [D, 2-(2-hydroxybenzamido)-5,7-dihydro-4H-thieno[2,3-c]pyran-3-carboxamide, reference compound] |  |  |  | < 5.00 | 6.81
